# Where two headings read alike, the source gives them in different places.
# Experiments:
# [1] = test system: endogenous NAMPT in U2OS cells; assay: Cellular NAD+ modulation assay (NAD/NADH-Glo, U2OS cells); type: cell-based; conditions: Homo sapiens; for maximal fold induction: read-out: Cellular Emax
# Outline: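 NAD/NADH-Glo luminescence quantified NAD+ after acid treatment (60 °C, 15 min) and neutralization of DTAB lysates. Beforehand, U2OS cells seeded 16 h earlier received compound concentration series for 24 h at 37 °C. Values given as half-maximal activation concentration (EC50) and maximal fold change versus DMSO (Emax).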
# [2] = biological target: T1, human enzyme NAMPT (full length) (Homo sapiens, UniProt P43490); assay: NMN fluorescence biochemical assay (stimulation of NMN synthesis by NAMPT); conditions: for EC50: concentration giving half-maximal activation, read-out: Enzymatic EC50; for Enzymatic Emax: fold change of maximal activation compared to DMSO
# T1 construct: human enzyme NAMPT (full length)
# T1 sequence (P43490 whole entry): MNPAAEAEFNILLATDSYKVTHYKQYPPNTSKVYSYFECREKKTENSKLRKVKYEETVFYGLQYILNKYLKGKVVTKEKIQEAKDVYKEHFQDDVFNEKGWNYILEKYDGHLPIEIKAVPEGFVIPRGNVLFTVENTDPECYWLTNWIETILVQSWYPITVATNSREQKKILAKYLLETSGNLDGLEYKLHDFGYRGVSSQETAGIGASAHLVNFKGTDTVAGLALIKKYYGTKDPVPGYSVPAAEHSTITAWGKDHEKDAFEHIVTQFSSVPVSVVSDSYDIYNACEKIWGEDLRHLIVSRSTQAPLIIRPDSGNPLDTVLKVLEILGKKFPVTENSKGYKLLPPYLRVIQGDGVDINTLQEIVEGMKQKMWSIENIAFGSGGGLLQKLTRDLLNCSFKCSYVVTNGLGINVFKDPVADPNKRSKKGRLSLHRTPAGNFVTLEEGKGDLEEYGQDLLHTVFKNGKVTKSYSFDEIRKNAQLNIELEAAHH
# Outline: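 Full-length human NAMPT (100 nM) was preincubated 15 min at 37 °C with compound in 50 mM Tris-HCl pH 7.5, 10 mM MgCl2, 2 mM DTT, then reacted 1 h at 37 °C with 50 μM NAM, 100 μM PRPP, 4 mM ATP (stated solution concentrations). NMN was derivatised with acetophenone/KOH then formic acid and read at Ex/Em 382/445 nm; EC50 and Emax (fold over DMSO) reported.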
# [3] = 24 hours incubation, cellular NAD+
# [4] = NMN fluorescence assay, purified human NAMPT 100 nM
# [5] = 24 hours incubation with compound
# [6] = NMN synthesis by purified human NAMPT (100 nM)
Structure (SMILES),"EC50 [1, 3]","maximal fold induction [1, 3]","EC50 [2, 4]",Enzymatic Emax [2],"EC50 [1, 5]","maximal fold induction [1, 5]","EC50 [2, 6]"
"Cc1noc(Cl)c1CC1c2ccccc2C(=O)N1Cc1ccc2[nH]nnc2c1 (centres unmarked) [Compound 357, 2-((1H-benzo[d][1,2,3]triazol-5-yl)methyl)-3-((5-chloro-3-methylisoxazol-4-yl)methyl)isoindolin-1-one]",< 0.5 µM,> 1.5,0.5 to 5 µM,A (A>3),,,
"Cn1ncc(Cl)c1CC1c2cc(F)ccc2C(=S)N1CC1CC2(CNC(=O)O2)C1 (centres unmarked) [Compound 521, 2-((3-((4-chloro-1-methyl-1H-pyrazol-5-yl)methyl)-5-fluoro-1-thioxoisoindolin-2-yl)methyl)-5-oxa-7-azaspiro[3.4]octan-6-one]",0.5 to 5 µM,> 1.5,< 0.5 µM,B (3≥B>2),,,
"COc1nn(C)c(CC2c3ccccc3C(=O)N2CC2CC3(CNC(=O)O3)C2)c1Cl (centres unmarked) [Compound 451, 2-((1-((4-chloro-3-methoxy-1-methyl-1H-pyrazol-5-yl)methyl)-3-oxoisoindolin-2-yl)methyl)-5-oxa-7-azaspiro[3.4]octan-6-one]",< 0.5 µM,> 1.5,< 0.5 µM,B (3≥B>2),,,
"Cn1ncc(Cl)c1CC1c2ccccc2C(=O)N1Cc1ccc2c(c1)nnn2C (centres unmarked) [Compound 557, 3-((4-chloro-1-methyl-1H-pyrazol-5-yl)methyl)-2-((1-methyl-1H-benzo[d][1,2,3]triazol-5-yl)methyl)isoindolin-1-one]",< 0.5 µM,> 1.5,0.5 to 5 µM,A (A>3),,,
"COCCOc1nn(C)c(CC2c3ccccc3C(=O)N2Cc2ccc3[nH]nnc3c2)c1Cl (centres unmarked) [Compound 371, 2-((1H-benzo[d][1,2,3]triazol-5-yl)methyl)-3-((4-chloro-3-(2-methoxyethoxy)-1-methyl-1H-pyrazol-5-yl)methyl)isoindolin-1-one]",< 0.5 µM,> 1.5,< 0.5 µM,B (3≥B>2),,,
"CSc1ccc(CN2C(=O)c3ccccc3C2Cc2c(Cl)cnn2C)cc1 (centres unmarked) [Compound 542, 3-((4-chloro-1-methyl-1H-pyrazol-5-yl)methyl)-2-(4-(methylthio)benzyl)isoindolin-1-one]",0.5 to 5 µM,1.2 to 1.5,≥ 5 µM,B (3≥B>2),,,
"O=C1c2ccccc2C(Cc2cnccc2Cl)N1Cc1ccc2[nH]c(=O)oc2c1 (centres unmarked) [Compound 175, 6-((1-((4-chloropyridin-3-yl)methyl)-3-oxoisoindolin-2-yl)methyl)benzo[d]oxazol-2(3H)-one]",,,,B (3≥B>2),< 0.5 µM,> 1.5,< 0.5 µM
"Cn1ncc(Cl)c1CC1c2ccccc2C(=O)N1Cc1c[nH]nn1 (centres unmarked) [Compound 637, 2-((1H-1,2,3-triazol-4-yl)methyl)-3-((4-chloro-1-methyl-1H-pyrazol-5-yl)methyl)isoindolin-1-one]",< 0.5 µM,1.2 to 1.5,≥ 5 µM,B (3≥B>2),,,
"O=C1c2ccccc2C(Cc2ncccc2Br)N1C/C=C/c1cn[nH]c1 (centres unmarked) [Compound 423, (E)-2-(3-(1H-pyrazol-4-yl)allyl)-3-((3-bromopyridin-2-yl)methyl)isoindolin-1-one]",< 0.5 µM,> 1.5,< 0.5 µM,B (3≥B>2),,,
"COc1ccc(CN2C(=O)c3ccccc3C2Cc2c(Cl)cnn2C)cc1Cl (centres unmarked) [Compound 544, 3-((4-chloro-1-methyl-1H-pyrazol-5-yl)methyl)-2-(3-chloro-4-methoxybenzyl)isoindolin-1-one]",0.5 to 5 µM,1.2 to 1.5,0.5 to 5 µM,C (2≥C),,,
"CC1c2cc(Cc3ccccc3)ccc2C(=O)N1Cc1ccc2[nH]c(=O)oc2c1 (centres unmarked) [Compound 113, 6-((5-benzyl-3-methyl-1-oxoisoindolin-2-yl)methyl)benzo[d]oxazol-2(3H)-one]",,,,B (3≥B>2),0.5 to 5 µM,1.2 to 1.5,0.5 to 5 µM
"Cc1ccc2c(c1)C(=O)N(Cc1ccc3[nH]nnc3c1)C2=O [Compound 37, 2-((1H-benzo[d][1,2,3]triazol-5-yl)methyl)-5-methylisoindoline-1,3-dione]",,,,A (A>3),0.5 to 5 µM,≤ 1.2,≥ 5 µM
"Cn1cc(Cl)c(CC2c3ccccc3C(=O)N2Cc2ccc3[nH]c(=O)oc3c2)n1 (centres unmarked) [Compound 232, 6-((1-((4-chloro-1-methyl-1H-pyrazol-3-yl)methyl)-3-oxoisoindolin-2-yl)methyl)benzo[d]oxazol-2(3H)-one]",,,,A (A>3),< 0.5 µM,> 1.5,< 0.5 µM
"N#Cc1ccc(Br)c(CC2c3ccccc3C(=O)N2Cc2ccc3[nH]c(=O)oc3c2)n1 (centres unmarked) [Compound 221, 5-bromo-6-((3-oxo-2-((2-oxo-2,3-dihydrobenzo[d]oxazol-6-yl)methyl)isoindolin-1-yl)methyl)picolinonitrile]",,,,A (A>3),< 0.5 µM,> 1.5,< 0.5 µM
"Cn1nc(CN2CCC2)c(Cl)c1CC1c2ccccc2C(=O)N1CC1CC2(CNC(=O)O2)C1 (centres unmarked) [Compound 508, 2-((1-((3-(azetidin-1-ylmethyl)-4-chloro-1-methyl-1H-pyrazol-5-yl)methyl)-3-oxoisoindolin-2-yl)methyl)-5-oxa-7-azaspiro[3.4]octan-6-one]",0.5 to 5 µM,> 1.5,< 0.5 µM,B (3≥B>2),,,
"Cn1ncc(Cl)c1CC1c2cc(Br)ccc2C(=O)N1Cc1ccc2[nH]c(=O)oc2c1 (centres unmarked) [Compound 431, 6-((5-bromo-3-((4-chloro-1-methyl-1H-pyrazol-5-yl)methyl)-1-oxoisoindolin-2-yl)methyl)benzo[d]oxazol-2(3H)-one]",< 0.5 µM,> 1.5,< 0.5 µM,A (A>3),,,
"COc1ccc(CN2C(=O)c3cnccc3C2Cc2c(C)ccnc2C#N)cc1 (centres unmarked) [Compound 621, 3-((2-(4-methoxybenzyl)-3-oxo-2,3-dihydro-1H-pyrrolo[3,4-c]pyridin-1-yl)methyl)-4-methylpicolinonitrile]",0.5 to 5 µM,> 1.5,≥ 5 µM,B (3≥B>2),,,
"CC1c2ccccc2C(=O)N1Cc1ccc(O)cc1 (centres unmarked) [Compound 31, 2-(4-hydroxybenzyl)-3-methylisoindolin-1-one]",,,,A (A>3),0.5 to 5 µM,> 1.5,0.5 to 5 µM
"Cn1ncc(Cl)c1CC1c2ccccc2C(C)(C)N1CC1CC2(CNC(=O)O2)C1 (centres unmarked) [Compound 565, 2-((3-((4-chloro-1-methyl-1H-pyrazol-5-yl)methyl)-1,1-dimethylisoindolin-2-yl)methyl)-5-oxa-7-azaspiro[3.4]octan-6-one]",< 0.5 µM,> 1.5,< 0.5 µM,A (A>3),,,
"O=C1c2ccc(N3CCCC3)cc2C(=O)N1Cc1ccc(O)cc1 [Compound 36, 2-(4-hydroxybenzyl)-5-(pyrrolidin-1-yl)isoindoline-1,3-dione]",,,,A (A>3),0.5 to 5 µM,1.2 to 1.5,0.5 to 5 µM
"O=C1c2ccc(N3CCOCC3)cc2CN1Cc1ccc2[nH]c(=O)oc2c1 [Compound 47, 6-((5-morpholino-1-oxoisoindolin-2-yl)methyl)benzo[d]oxazol-2(3H)-one]",,,,B (3≥B>2),5 to 50 µM,> 1.5,≥ 5 µM
"COc1ccc(CN2C(=O)c3ccccc3C2Cc2c(C)ccnc2C#N)cn1 (centres unmarked) [Compound 588, 3-((2-((6-methoxypyridin-3-yl)methyl)-3-oxoisoindolin-1-yl)methyl)-4-methylpicolinonitrile]",0.5 to 5 µM,> 1.5,≥ 5 µM,B (3≥B>2),,,
"CC1c2cc(CN3CC4(COC4)C3)ccc2C(=O)N1Cc1ccc2[nH]c(=O)oc2c1 (single isomer, unassigned) [Compound 187]",,,,B (3≥B>2),0.5 to 5 µM,> 1.5,0.5 to 5 µM
"C/C(=C\c1c[nH]nn1)CN1C(=O)c2ccccc2C1Cc1ncccc1Br (centres unmarked) [Compound 416, (E)-3-((3-bromopyridin-2-yl)methyl)-2-(2-methyl-3-(1H-1,2,3-triazol-4-yl)allyl)isoindolin-1-one]",< 0.5 µM,> 1.5,< 0.5 µM,B (3≥B>2),,,
"O=C1c2ccccc2C(Cc2ncsc2Cl)N1Cc1ccc2[nH]nnc2c1 (centres unmarked) [Compound 418, 2-((1H-benzo[d][1,2,3]triazol-5-yl)methyl)-3-((5-chlorothiazol-4-yl)methyl)isoindolin-1-one]",< 0.5 µM,> 1.5,< 0.5 µM,B (3≥B>2),,,
"CC1c2cc(NC3CC3)ccc2C(=O)N1Cc1ccc2[nH]c(=O)oc2c1 (single isomer, unassigned) [Compound 242]",,,,A (A>3),0.5 to 5 µM,> 1.5,≥ 5 µM

# Reference: patent US20260078130A1, “NAMPT MODULATORS, PREPARATIONS, AND USES THEREOF” (SIRONAX LTD., priority 2022, published 2026)
